Assay results taken from patent US20240277683A1, “COMPOUNDS” (CTXT PTY LTD, priority 2018, published 2024).
Where two headings read alike, the source gives them in different places.

How the values were obtained:
Format in all cases: cell-based
Conditions in all cases: Homo sapiens
[1] = tested on: acetylation of the histone H3K23 marker in U2OS cells; assay: Histone H3 Lysine 23 Acetylation Biomarker Assay
Experimental: Compounds may be tested for their ability to inhibit acetylation of the histone H3K23 marker in the following assay:
The cell line U2OS was seeded at a density of 9,000 cells per well in 96 well optical quality tissue culture plates in RPMI medium and 10% foetal bovine serum, and allowed to adhere for 24 hours under standard culture conditions (37 degree Celsius, 5% CO2). At the end of this period the medium was aspirated. […] After incubation for 24 hours, the cells were fixed with 3.7% formaldehyde in PBS for 20 minutes at room temperature, washed (5×5 minutes) with phosphate buffer saline containing 0.1% Tween 20 and blocked with Odyssey blocking buffer (LI-COR, Lincoln, NE) containing 0.1% TritonX100. Anti-H3K23ac specific antibody (Abcam ab177275) in Odyssey blocking buffer containing 0.1% Tween 20 was added and incubated for 16 hours at 4 degree Celsius. […] Plates were washed as previously and read on a PerkinElmer Phenix high content imaging platform.

[2] = tested on: acetylation of the histone H3 Lysine 14 marker in U2OS cells; assay: Histone H3 Lysine 14 Acetylation Biomarker Assay
Experimental: Compounds may be tested for their ability to inhibit acetylation of the histone H3 Lysine 14 marker in the following assay:
(§1) The cell line U2OS was seeded at a density of 3,000 cells per well in 384-well optical quality tissue culture plates in RPMI medium supplemented with 10% foetal bovine serum and 10 mM Hepes. The cells were allowed to adhere for 24 hours under standard culture conditions (37 degree Celsius, 5% CO2). At the end of this period the cells were washed with serum free medium. […] Plates were washed and read on a PerkinElmer Opera HCS high content imaging platform.

[3] = tested on: histone H2A.Z Lysine 7 acetylation marker in U2OS cells; assay: H2A.Z Lysine 7 Acetylation Biomarker Assay
Experimental: Compounds may be tested for their ability to inhibit the histone H2A.Z Lysine 7 acetylation marker in the following assay:
as §1

[4] = H3K23ac, U2OS cells, 24 hours, read-out: IC50
[5] = H3K14ac, U2OS cells, serum free medium, 24 hours, read-out: IC50
[6] = H2A.ZK7ac, U2OS cells, serum free medium, 24 hours, read-out: IC50

Structure (SMILES) | IC50 [1, 4] | IC50 [2, 5] | IC50 [3, 6] | IC50 ([1]; U2OS, 24 h) | IC50 ([2]; U2OS, 24 h) | IC50 ([3]; U2OS, 24 h)
COc1ccc(Cl)cc1-c1cc(NS(=O)(=O)c2c(OC)cccc2OC)no1 [Example 15, N-(5-(5-Chloro-2-methoxyphenyl)isoxazol-3-yl)-2,6-dimethoxybenzenesulfonamide] | 0.141 µM | 0.45 µM | 12.1 µM |  |  | 
COc1ccc(-c2ncco2)cc1-c1cc(NS(=O)(=O)c2c(OC)cccc2OC)no1 [Example 18, 2,6-Dimethoxy-N-(5-(2-methoxy-5-(oxazol-2-yl)phenyl)isoxazol-3-yl)benzenesulfonamide] | 1.53 µM | 3.84 µM | 19.9 µM |  |  | 
COc1ccccc1-c1cc(NS(=O)(=O)c2c(OC)cccc2OC)no1 [Example 56, 2,6-Dimethoxy-N-(5-(2-methoxyphenyl)isoxazol-3-yl)benzenesulfonamide] |  |  |  | 2.07 µM | 2.64 µM | 24.1 µM
CCc1ccc(OC)c(S(=O)(=O)Nc2cc(-c3cccc(OC)c3)on2)c1 [Example 13, 5-Ethyl-2-methoxy-N-(5-(3-methoxyphenyl)isoxazol-3-yl)benzenesulfonamide] |  |  |  |  | 22.4 µM | 
COc1ccc(OC)c(-c2nnc(NS(=O)(=O)c3c(OC)cccc3OC)s2)c1 [Example 70, N-(5-(2,5-Dimethoxyphenyl)-1,3,4-thiadiazol-2-yl)-2,6-dimethoxybenzenesulfonamide] | 0.275 µM |  |  |  |  | 
COc1ccc(-c2ccnn2C)cc1-c1cc(NS(=O)(=O)c2c(OC)cccc2OC)no1 [Example 119, 2,6-Dimethoxy-N-(5-(2-methoxy-5-(1-methyl-1H-pyrazol-5-yl)phenyl)isoxazol-3-yl)benzenesulfonamide] | 0.634 µM |  |  |  |  | 
COc1ccccc1-c1cc(NS(=O)(=O)NC2CCCCC2)no1 [Example 117, N-Cyclohexyl((5-(2-methoxyphenyl)-1,2-oxazol-3-yl)amino)sulfonamide] |  |  |  | 5.56 µM |  | 
COc1cccc(OC)c1S(=O)(=O)Nc1cc(-c2ccccc2OC(F)(F)F)on1 [Example 22, 2,6-Dimethoxy-N-(5-(2-(trifluoromethoxy)phenyl)isoxazol-3-yl)benzenesulfonamide] |  |  |  | 2.13 µM | 0.762 µM | 4.77 µM
COCc1ccc(OC)c(-c2cc(NS(=O)(=O)c3c(OC)cccc3OC)no2)c1 [Example 73, 2,6-Dimethoxy-N-(5-(2-methoxy-5-(methoxymethyl)phenyl)isoxazol-3-yl)benzenesulfonamide] |  |  |  | 0.0171 µM | 1.29 µM | 35.2 µM
COc1ccccc1-c1cc(NS(=O)(=O)Nc2ccccc2)no1 [Example 116, N-Phenyl((5-(2-methoxyphenyl)-1,2-oxazol-3-yl)amino)sulfonamide] |  |  |  | > 20 µM | > 40 µM | > 40 µM
COCc1ccc(OC)cc1-c1nnc(NS(=O)(=O)c2c(OC)cccc2OC)s1 [Example 96, 2,6-Dimethoxy-N-(5-(5-methoxy-2-(methoxymethyl)phenyl)-1,3,4-thiadiazol-2-yl)benzenesulfonamide] | 3.94 µM | 7.38 µM | 27.2 µM |  |  | 
COc1ccc(C2CC2)cc1-c1cc(NS(=O)(=O)c2c(OC)cccc2OC)no1 [Example 8, N-(5-(5-Cyclopropyl-2-methoxyphenyl)isoxazol-3-yl)-2,6-dimethoxybenzenesulfonamide] |  |  |  | 0.0518 µM | 0.345 µM | 3.27 µM
COc1ccc(-n2cccn2)cc1-c1cc(NS(=O)(=O)c2c(OC)cccc2OC)no1 [Example 105, 2,6-Dimethoxy-N-(5-(2-methoxy-5-(1H-pyrazol-1-yl)phenyl)isoxazol-3-yl)benzenesulfonamide] | 0.173 µM | 3 µM | 17.1 µM |  |  | 
COc1ccc(S(=O)(=O)Nc2cc(-c3ccccc3OC)on2)c(OC)c1 [Example 57, 2,4-Dimethoxy-N-(5-(2-methoxyphenyl)isoxazol-3-yl)benzenesulfonamide] |  |  |  |  | > 40 µM | 
CCc1ccc(OC)c(S(=O)(=O)Nc2cc(-c3ccc(OC)cc3OC)on2)c1 [Example 12, N-(5-(2,4-Dimethoxyphenyl)isoxazol-3-yl)-5-ethyl-2-methoxybenzenesulfonamide] |  |  |  |  | > 40 µM | > 40 µM
COc1ccc(-c2ccn[nH]2)cc1-c1cc(NS(=O)(=O)c2c(OC)cccc2OC)no1 [Example 72, 2,6-Dimethoxy-N-(5-(2-methoxy-5-(1H-pyrazol-5-yl)phenyl)isoxazol-3-yl)benzenesulfonamide] |  |  |  | 0.204 µM | 0.575 µM | 4.73 µM
COc1ccccc1-c1cc(NS(=O)(=O)c2c(OC)ccc(-c3ccccc3)c2OC)no1 [Example 10, 2,4-Dimethoxy-N-(5-(2-methoxyphenyl)isoxazol-3-yl)-[1,1′-biphenyl]-3-sulfonamide] |  |  |  |  | 4.14 µM | > 40 µM

Structure (SMILES) | IC50 [1, 4] | IC50 [2, 5] | IC50 [3, 6] | IC50 ([1]; U2OS, 24 h) | IC50 ([2]; U2OS, 24 h) | IC50 ([3]; U2OS, 24 h)
CCOc1ccc(OC)cc1-c1cc(NS(=O)(=O)c2c(OC)cccc2OC)no1 [Example 16, N-(5-(2-Ethoxy-5-methoxyphenyl)isoxazol-3-yl)-2,6-dimethoxybenzenesulfonamide] | 0.117 µM | 0.193 µM | 1.77 µM |  |  | 
COc1ccccc1-c1cc(NS(=O)(=O)Cc2ccccc2)no1 [Example 2, N-(5-(2-Methoxyphenyl)isoxazol-3-yl)-1-phenylmethanesulfonamide] |  |  |  | > 10 µM |  | 
COCc1ccc(OC)c(-c2cc(NS(=O)(=O)Cc3ccccc3)no2)c1 [Example 112, N-(5-(2-Methoxy-5-(methoxymethyl)phenyl)isoxazol-3-yl)-1-phenylmethanesulfonamide] | 0.187 µM |  |  |  |  | 
COCc1ccc(OC)cc1-c1cc(NS(=O)(=O)c2c(OC)cccc2OC)no1 [Example 71, 2,6-Dimethoxy-N-(5-(5-methoxy-2-(methoxymethyl)phenyl)isoxazol-3-yl)benzenesulfonamide] | 0.0693 µM |  |  |  |  | 
COc1ccccc1-c1cc(NS(=O)(=O)c2c(OC)cc(-c3ccccc3)cc2OC)no1 [Example 11, 3,5-Dimethoxy-N-(5-(2-methoxyphenyl)isoxazol-3-yl)-[1,1′-biphenyl]-4-sulfonamide] |  |  |  |  | 2.74 µM | 5.32 µM
COc1cc(Cl)ccc1-c1cc(NS(=O)(=O)c2c(OC)cccc2OC)no1 [Example 21, N-(5-(4-Chloro-2-methoxyphenyl)isoxazol-3-yl)-2,6-dimethoxybenzenesulfonamide] |  | > 40 µM | > 40 µM |  |  | 
COc1ccc(OC(C)C)c(-c2cc(NS(=O)(=O)c3c(OC)cccc3OC)no2)c1 [Example 14, N-(5-(2-Isopropoxy-5-methoxyphenyl)isoxazol-3-yl)-2,6-dimethoxybenzenesulfonamide] | 0.133 µM | 0.22 µM | 2.5 µM |  |  | 
COc1cccc(OC)c1S(=O)(=O)Nc1nnc(-c2cc(Cl)ccc2OC(C)C)s1 [Example 111, N-(5-(5-Chloro-2-isopropoxyphenyl)-1,3,4-thiadiazol-2-yl)-2,6-dimethoxybenzenesulfonamide] | 0.475 µM |  |  |  |  | 
COc1ccccc1-c1cc(NS(=O)(=O)C2CCCCC2)no1 [Example 102, N-(5-(2-Methoxyphenyl)isoxazol-3-yl)cyclohexanesulfonamide] |  | 25.6 µM | > 40 µM |  |  | 
COc1ccc(CC2CCCCC2)cc1-c1cc(NS(=O)(=O)c2c(OC)cccc2OC)no1 [Example 19, N-(5-(5-(Cyclohexylmethyl)-2-methoxyphenyl)isoxazol-3-yl)-2,6-dimethoxybenzenesulfonamide] | > 10 µM |  | 5.42 µM |  |  | 
COc1ccccc1-c1cc(NS(=O)(=O)c2ccccc2)no1 [Example 3, N-(5-(2-Methoxyphenyl)isoxazol-3-yl)benzenesulfonamide] |  |  |  | > 10 µM | 39.2 µM | > 40 µM
CCOc1ccccc1-c1cc(NS(=O)(=O)c2c(OC)cccc2OC)no1 [Example 5, N-(5-(2-Ethoxyphenyl)isoxazol-3-yl)-2,6-dimethoxybenzenesulfonamide] |  |  |  | 0.895 µM | 2.33 µM | 5.64 µM
COc1ccc(OC)c(-c2cc(NS(=O)(=O)c3c(OC)cccc3OC)no2)c1 [Example 7, N-(5-(2,5-Dimethoxyphenyl)isoxazol-3-yl)-2,6-dimethoxybenzenesulfonamide] |  |  |  | 0.0491 µM | 0.496 µM | 2.19 µM
CCc1ccc(OC)c(S(=O)(=O)Nc2cc(-c3ccccc3OC)on2)c1 [Example 58, 5-Ethyl-2-methoxy-N-(5-(2-methoxyphenyl)isoxazol-3-yl)benzenesulfonamide] |  |  |  |  | 22.4 µM | > 40 µM
COc1ccccc1-c1nnc(NS(=O)(=O)c2c(OC)cccc2OC)s1 [Example 17, 2,6-Dimethoxy-N-(5-(2-methoxyphenyl)-1,3,4-thiadiazol-2-yl)benzenesulfonamide] | 2.26 µM | 3.2 µM | 29.3 µM |  |  | 
COc1ccccc1-c1cc(NS(=O)(=O)CCc2ccccc2)no1 [Example 4, N-(5-(2-Methoxyphenyl)isoxazol-3-yl)-2-phenylethane-1-sulfonamide] |  |  |  | > 10 µM |  | 
